By half-life is commonly meant the time in which the quantity being followed falls by half. A higher half-life goes with slow loss. The EC50 is the concentration that produces a half-maximal response.

One data set in a line: in vivo. The settings on record: male, Sprague-Dawley, rat, 20 nmol/kg.
Data set [1] has as its target T1, human amylin receptor (calcitonin receptor co-expressed with receptor activity modifying protein, RAMP3) (hAMYR3) (Homo sapiens, UniProt O60896+P30988).
T1 construct: expressed in transfected cells
T1 sequence (P30988 25-474): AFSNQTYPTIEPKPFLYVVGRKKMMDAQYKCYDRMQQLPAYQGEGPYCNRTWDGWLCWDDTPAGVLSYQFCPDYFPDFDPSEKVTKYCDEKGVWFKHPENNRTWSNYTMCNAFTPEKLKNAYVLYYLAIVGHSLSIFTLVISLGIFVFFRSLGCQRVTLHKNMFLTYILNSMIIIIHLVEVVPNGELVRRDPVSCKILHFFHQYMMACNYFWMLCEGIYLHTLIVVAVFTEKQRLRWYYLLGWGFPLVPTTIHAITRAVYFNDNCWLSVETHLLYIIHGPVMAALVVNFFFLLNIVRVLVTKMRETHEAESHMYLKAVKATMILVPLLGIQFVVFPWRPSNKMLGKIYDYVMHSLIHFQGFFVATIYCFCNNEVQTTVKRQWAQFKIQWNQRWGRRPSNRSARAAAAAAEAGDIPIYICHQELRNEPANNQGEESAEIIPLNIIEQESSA
T1 sequence (O60896 24-148 partner): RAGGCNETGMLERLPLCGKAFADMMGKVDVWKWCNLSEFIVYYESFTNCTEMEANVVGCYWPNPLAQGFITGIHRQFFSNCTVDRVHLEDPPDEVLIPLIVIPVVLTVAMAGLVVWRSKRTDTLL
As to the kind of experiment: cAMP production in 1321N1 cells with stable recombinant expression of human amylin receptor (hAMYR3). It is filed as cell-based. The following applies: for Ratio (selectivity hAMYR vs hCTR, ratio of EC50 values at the two receptors): EC50 hCTR / EC50 hAMYR3; for EC50: cAMP, 1321N1 cells, assay buffer with 0.1% BSA, read-out: EC50 (pM) hAMYR3. Summed up: (§1)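 Receptor-expressing cells (human receptors in 1321N1, rat receptors in HEK) incubated 30 min at room temperature with peptide in HBSS/HEPES pH 7.4, 0.1% BSA, 0.5 mM IBMX. cAMP read by HTRF; EC50 from 4-parameter fit as % of maximal amylin or calcitonin response.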
(Cyclic AMP is a second messenger, typically raised through Gs and lowered through Gi signalling.)

In data set [2] the target is T2, human calcitonin receptor (hCTR) (Homo sapiens, UniProt P30988).
T2 construct: expressed in transfected cells
T2 sequence (P30988 25-474): T1 sequence (P30988 25-474)
The data set is described as follows: cAMP production in 1321N1 cells with stable recombinant expression of human calcitonin receptor (hCTR). It is filed as cell-based. The following applies: cAMP, 1321N1 cells, assay buffer with 0.1% BSA; read-out: EC50 (pM) hCTR. Summed up:
as §1

A short description of data set [3]: Thioflavin T fibrillation assay. The data set is classed as physicochemical. The settings on record: ThT fibrillation assay; peptide 1 mg/mL in 25 mM sodium acetate buffer pH 4.0; 6 days at 37 °C with shaking; >144 h = no increase. The text has this: Peptide aggregation that form fibrils is an indication of physical instability. Fibril formation in solution poses a significant risk for the stability of injectable peptide drug products. Thioflavin T (ThT) fibrillation assay is a useful tool to assess the aggregation kinetics of a peptide or protein under accelerated and stressed conditions that can be used to forecast the long-term viability of a compound in solution. ThT can selectively bind amyloid fibrils and the resultant complex emits strong fluorescence signal at 482 nm when excited at 450 nm (Anal Biochem. 1989 Mar;177(2):244-9). Monitoring of the change in fluorescence signal is an established method to study the fibril forming potential of peptides and proteins. ThT (purchased from Sigma Aldrich) stock solution is prepared by dissolving the ThT powder in Milli-Q water and filtered to obtain a 0.25 mM solution. The concentration of the solution is measured at 412 nm using an extinction coefficient of 36 mM^−1cm^−1. Test peptides were dissolved at 1 mg/mL in 25 mM sodium acetate buffer pH 4.0. 100 μL aliquot of peptide solution and 5 μL aliquot of ThT solution were placed in a clear bottom black fluorescence 96-well plate. 5 replicates of each test samples were placed in zo the same row of the plate. Buffer was placed in control wells for baseline correction. All empty wells were filled with water to prevent evaporation. The plate was sealed with aluminium seal and placed in fluorescence plate reader and incubated for 6 days at 37 ° C. with intermittent orbital shaking at 500 to 750 rpm. The fluorescence intensity was measured every 30 min using excitation at 444 nm and emission at 480 nm. The fibril forming potential of the test peptides was determined by measuring the average time taken to detect an increase in baseline corrected fluorescence intensity.

Numbered stars: 1 amine (or outer) side, 2 acyl side, 3 side chain; on linkers, the order of the positions; unused ones are H or OH. Bridge positions count the residues as written; N and C are the ends. Square brackets hold non-standard residues; d marks the D form. Side chains are listed from the residue outwards. Peptide text beside a SMILES is read from it. * marks the point of attachment. C18 diacid = O=C(O)CCCCCCCCCCCCCCCCC(=O)*; γGlu = O=C(O)[C@H](CCC(=O)[*:2])N[*:1]; Dab = NCC[C@H](N)C(=O)O; Aib = CC(C)(N)C(=O)O

Take `CC[C@H](C)[C@H](NC(=O)[C@@H]1CCCN1C(=O)CNC(=O)[C@H](Cc1ccccc1)NC(=O)[C@H](CC(N)=O)NC(=O)C(C)(C)NC(=O)[C@H](CO)NC(=O)[C@H](CO)NC(=O)[C@H](Cc1c[nH]cn1)NC(=O)[C@@H](NC(=O)[C@H](CC(C)C)NC(=O)[C@H](Cc1ccccc1)NC(=O)[C@H](CC(N)=O)NC(=O)[C@H](C)NC(=O)[C@H](CC(C)C)NC(=O)[C@H](CCCNC(=N)N)NC(=O)[C@H](CCC(N)=O)NC(=O)[C@@H](NC(=O)[C@H](C)NC(=O)[C@@H]1CSSC[C@H](NC(=O)[C@@H](N)CCCCNC(=O)CC[C@H](NC(=O)CCCCCCCCCCCCCCCCC(=O)O)C(=O)O)C(=O)N[C@@H](CC(N)=O)C(=O)N[C@@H]([C@@H](C)O)C(=O)N[C@@H](C)C(=O)N[C@@H]([C@@H](C)O)C(=O)N1)[C@@H](C)O)C(C)C)C(=O)N[C@@H](CC(C)C)C(=O)N1CCC[C@H]1C(=O)N1CCC[C@H]1C(=O)N[C@H](C(=O)N[C@@H](CC(N)=O)C(=O)N[C@H](C(=O)NCC(=O)N[C@@H](CO)C(=O)N[C@@H](CCCNC(=N)N)C(=O)N[C@H](C(=O)N[C@@H](Cc1ccc(O)cc1)C(N)=O)[C@@H](C)O)C(C)C)[C@@H](C)O` [Peptide 64, K(γE-C18diacid)[CNTATC]ATQRLANFLVHSS(Aib)NFGPILPPTNVGSRTY-amide] (H-K([γGlu-C18 diacid])CNTATCATQRLANFLVHSS[Aib]NFGPILPPTNVGSRTY-NH2; disulfide 2-7; N-terminus assumed): the half-life in the data set “in vivo” (iv) is 6 h; in the data set “in vivo” (sc), 5 h. For the same molecule, the “Ratio (selectivity hAMYR vs hCTR, ratio of EC50 values at the two receptors)” value in data set [1] stood at 9. In addition, the EC50 in data set [1] came to 149 pM; in data set [2], 1280 pM.
On to `CC[C@H](C)[C@H](NC(=O)[C@@H]1CCCN1C(=O)CNC(=O)[C@H](Cc1ccccc1)NC(=O)[C@H](CC(N)=O)NC(=O)C(C)(C)NC(=O)[C@H](CO)NC(=O)[C@H](CO)NC(=O)[C@H](Cc1c[nH]cn1)NC(=O)[C@@H](NC(=O)[C@H](CC(C)C)NC(=O)[C@H](Cc1ccccc1)NC(=O)[C@H](CC(N)=O)NC(=O)[C@H](C)NC(=O)[C@H](CC(C)C)NC(=O)[C@H](CCCNC(=N)N)NC(=O)[C@H](CCC(N)=O)NC(=O)[C@@H](NC(=O)[C@H](C)NC(=O)[C@@H]1CSSC[C@H](NC(=O)[C@H](CCCCN)NC(=O)[C@@H](N)CCCCNC(=O)CC[C@H](NC(=O)CCCCCCCCCCCCCCCCC(=O)O)C(=O)O)C(=O)N[C@@H](CC(N)=O)C(=O)N[C@@H]([C@@H](C)O)C(=O)N[C@@H](C)C(=O)N[C@@H]([C@@H](C)O)C(=O)N1)[C@@H](C)O)C(C)C)C(=O)N[C@@H](CC(C)C)C(=O)N1CCC[C@H]1C(=O)N1CCC[C@H]1C(=O)N[C@H](C(=O)N[C@@H](CCCNC(=N)N)C(=O)N[C@H](C(=O)NCC(=O)N[C@@H](CO)C(=O)N[C@@H](CC(N)=O)C(=O)N[C@H](C(=O)N[C@@H](Cc1ccc(O)cc1)C(N)=O)[C@@H](C)O)C(C)C)[C@@H](C)O` [Peptide 69, K(γE-C18diacid)K[CNTATC]ATQRLANFLVHSS(Aib)NFGPILPPTRVGSNTY-amide] (H-K([γGlu-C18 diacid])KCNTATCATQRLANFLVHSS[Aib]NFGPILPPTRVGSNTY-NH2; disulfide 3-8), for which the half-life was 6.3 h in the data set “in vivo” (iv) and 8.5 h in “in vivo” (sc). The “Ratio (selectivity hAMYR vs hCTR, ratio of EC50 values at the two receptors)” value in data set [1] worked out at 10. Moreover, the figures for the EC50 in data set [1] and in data set [2] were 164 pM and 1570 pM, respectively.
Consider `CC[C@H](C)[C@H](NC(=O)[C@@H]1CCCN1C(=O)CNC(=O)[C@H](Cc1ccccc1)NC(=O)[C@H](CC(N)=O)NC(=O)[C@H](CC(N)=O)NC(=O)[C@H](CO)NC(=O)[C@H](CO)NC(=O)[C@H](Cc1c[nH]cn1)NC(=O)[C@@H](NC(=O)[C@H](CC(C)C)NC(=O)[C@H](Cc1ccccc1)NC(=O)[C@H](CC(N)=O)NC(=O)[C@H](C)NC(=O)[C@H](CC(C)C)NC(=O)[C@H](CCCNC(=N)N)NC(=O)[C@H](CCC(N)=O)NC(=O)[C@@H](NC(=O)[C@H](C)NC(=O)[C@@H]1CSSC[C@H](NC(=O)[C@@H](N)CCCCNC(=O)CC[C@H](NC(=O)CCCCCCCCCCCCCCCCC(=O)O)C(=O)O)C(=O)N[C@@H](CC(N)=O)C(=O)N[C@@H]([C@@H](C)O)C(=O)N[C@@H](C)C(=O)N[C@@H]([C@@H](C)O)C(=O)N1)[C@@H](C)O)C(C)C)C(=O)N[C@@H](CC(C)C)C(=O)N1CCC[C@@H]1C(=O)N1CCC[C@H]1C(=O)N[C@H](C(=O)N[C@@H](CC(N)=O)C(=O)N[C@H](C(=O)NCC(=O)N[C@@H](CO)C(=O)N[C@@H](CC(N)=O)C(=O)N[C@H](C(=O)N[C@@H](Cc1ccc(O)cc1)C(N)=O)[C@@H](C)O)C(C)C)[C@@H](C)O` [Peptide 104] (H-K([γGlu-C18 diacid])CNTATCATQRLANFLVHSSNNFGPIL[dP]PTNVGSNTY-NH2; disulfide 2-7; N-terminus assumed), for which the “Time taken to detect increase in fluorescence intensity” value in data set [3] is given as less than 5 h. For the same molecule, in data set [1], the “Ratio (selectivity hAMYR vs hCTR, ratio of EC50 values at the two receptors)” value is on record as 23 and the EC50 turned out to be 79 pM. Besides, the EC50 in data set [2] stood at 1820 pM.
Regarding `CC[C@H](C)[C@H](NC(=O)[C@@H]1CCCN1C(=O)CNC(=O)[C@H](Cc1ccccc1)NC(=O)[C@H](CC(N)=O)NC(=O)[C@H](CC(N)=O)NC(=O)[C@H](CO)NC(=O)[C@H](CO)NC(=O)[C@H](Cc1c[nH]cn1)NC(=O)C(C)(C)NC(=O)[C@H](CC(C)C)NC(=O)[C@H](Cc1ccccc1)NC(=O)[C@H](CCN)NC(=O)[C@H](C)NC(=O)[C@H](CC(C)C)NC(=O)[C@H](CCCNC(=N)N)NC(=O)[C@H](CCC(N)=O)NC(=O)[C@@H](NC(=O)[C@H](C)NC(=O)[C@@H]1CSSC[C@H](NC(=O)[C@H](CCCCN)NC(=O)[C@@H](N)CCCCNC(=O)CC[C@H](NC(=O)CCCCCCCCCCCCCCCCC(=O)O)C(=O)O)C(=O)N[C@@H](CC(N)=O)C(=O)N[C@@H]([C@@H](C)O)C(=O)N[C@@H](C)C(=O)N[C@@H]([C@@H](C)O)C(=O)N1)[C@@H](C)O)C(=O)N[C@@H](CC(C)C)C(=O)N1CCC[C@H]1C(=O)N1CCC[C@H]1C(=O)N[C@H](C(=O)N[C@@H](CCC(=O)O)C(=O)N[C@H](C(=O)NCC(=O)N[C@@H](CO)C(=O)N[C@@H](CC(N)=O)C(=O)N[C@H](C(=O)N[C@@H](Cc1ccc(O)cc1)C(N)=O)[C@@H](C)O)C(C)C)[C@@H](C)O` [Peptide 156] (H-K([γGlu-C18 diacid])KCNTATCATQRLA[Dab]FL[Aib]HSSNNFGPILPPTEVGSNTY-NH2; disulfide 3-8), in data set [3], the “Time taken to detect increase in fluorescence intensity” value was more than 144 h. Besides, in data set [1], the “Ratio (selectivity hAMYR vs hCTR, ratio of EC50 values at the two receptors)” value amounted to 22.3 and the EC50 was 3750 pM. For the same molecule, in data set [2], the EC50 came to 83800 pM.

For the origin of these results see patent US20240067693A1, “POLYPEPTIDES AND USES THEREOF” (MEDIMMUNE LIMITED, priority 2020, published 2024).
